Assay results published in patent publication US9204653B2, “5-fluoro pyrimidine derivatives” (DOW AGROSCIENCES LLC, priority 2008, dated 2015).
Read-outs that look alike come from different tables or passages of the source.

Test system: Mycosphaerella graminicola; Anamorph: Septoria tritici; Bayer Code SEPTTR
Test: Leaf blotch of wheat, foliar fungicide treatment, one day protectant (1DP) or three day curative (3DC)
Format: in vivo, Septoria tritici on wheat plants (variety Yuma)
Settings: Zymoseptoria tritici; for pest or weed control at 50 ppm / pest or weed control at 200 ppm: % disease control rating
[1] = 24 h, one day protectant (1DP), 25 ppm, percent disease control rating, read-out: SETTTR 1DP 25 ppm
[2] = 24 h, one day protectant (1DP), percent disease control rating, read-out: SEPTTR 1DP 100 ppm
[3] = 72 h, three day curative (3DC), 25 ppm, percent disease control rating, read-out: SEPTTR 3DC 25 ppm
[4] = 72 h, three day curative (3DC), percent disease control rating, read-out: SEPTTR 3DC 100 ppm
[5] = 24 h, one day protectant, 25 ppm, rating of percent disease control, read-out: SETTTR 1DP 25 ppm
[6] = 24 h, one day protectant, rating of percent disease control, read-out: SEPTTR 1DP 100 ppm
[7] = 72 h, three day curative, 25 ppm, rating of percent disease control, read-out: SEPTTR 3DC 25 ppm
[8] = 72 h, three day curative, rating of percent disease control, read-out: SEPTTR 3DC 100 ppm
[9] = 24 h, one day protectant (1DP), 25 ppm, rating of percent disease control, read-out: SETTTR 1DP 25 ppm
[10] = 24 h, one day protectant (1DP), rating of percent disease control, read-out: SEPTTR 1DP 100 ppm
[11] = 72 h, three day curative (3DC), 25 ppm, rating of percent disease control, read-out: SEPTTR 3DC 25 ppm
[12] = 72 h, three day curative (3DC), rating of percent disease control, read-out: SEPTTR 3DC 100 ppm
[13] = 24 h, one day protectant (1DP), 25 ppm (first 1DP column), percent control rating, read-out: SETTTR 1DP 25 ppm
[14] = 24 h, one day protectant (1DP), 25 ppm as printed (second 1DP column), percent control rating, read-out: SETTTR 1DP 25 ppm
[15] = 72 h, three day curative (3DC), 25 ppm, percent control rating, read-out: SEPTTR 3DC 25 ppm
[16] = 72 h, three day curative (3DC), percent control rating, read-out: SEPTTR 3DC 100 ppm

What does the source list for `Cc1ccc(COc2ncc(F)c(NCc3ccccc3F)n2)cc1` [Compound 930]?
pest or weed control at 50 ppm (24 h, one day protectant): 0 to 25%; pest or weed control at 200 ppm (24 h, one day protectant): 76 to 100%

With `OCNc1nc(OCc2ccc(F)cc2)ncc1F` [Compound 17] as the molecule, how does the pest or weed control at 25 ppm [1] read?
The pest or weed control at 25 ppm was 76 to 100%.

What about the pest or weed control at 100 ppm [2] of the same molecule?
Its pest or weed control at 100 ppm is 76 to 100%.

What about the pest or weed control at 25 ppm [3] of the same molecule?
The pest or weed control at 25 ppm was 76 to 100%.

And the pest or weed control at 100 ppm [4]?
Its pest or weed control at 100 ppm is 76 to 100%.

What does the source list for `COc1cccc(COc2ncc(F)c(NCOCc3ccccc3)n2)c1` [Compound 638]?
pest or weed control at 25 ppm [5]: 51 to 75%; pest or weed control at 100 ppm [6]: 76 to 100%; pest or weed control at 25 ppm [7]: 0 to 25%; pest or weed control at 100 ppm [8]: 51 to 75%

`COCCOc1ncc(F)c(N)n1` [Compound 172] was tested. Which pest or weed control at 25 ppm [1] did it give?
The pest or weed control at 25 ppm was 0 to 25%.

What about the pest or weed control at 100 ppm [2] of the same molecule?
The pest or weed control at 100 ppm was 0 to 25%.

What about the pest or weed control at 25 ppm [3] of the same molecule?
The pest or weed control at 25 ppm was 0 to 25%.

What about the pest or weed control at 100 ppm [4] of the same molecule?
Its pest or weed control at 100 ppm is 0 to 25%.

How did the pest or weed control at 25 ppm [9] turn out when `COCCOC(=O)Nc1nc(OCc2ccc(C)cc2)ncc1F` [Compound 419] was run?
Its pest or weed control at 25 ppm is 76 to 100%.

And the pest or weed control at 100 ppm [10]?
The pest or weed control at 100 ppm was 76 to 100%.

What about the pest or weed control at 25 ppm [11] of the same molecule?
Its pest or weed control at 25 ppm is 76 to 100%.

What about the pest or weed control at 100 ppm [12] of the same molecule?
Its pest or weed control at 100 ppm is 76 to 100%.

Which pest or weed control at 25 ppm [9] does the source give for `Nc1nc(OCc2cccc3ccsc23)ncc1F` [Compound 381] here?
The pest or weed control at 25 ppm was 76 to 100%.

And the pest or weed control at 100 ppm [10]?
Its pest or weed control at 100 ppm is 76 to 100%.

And the pest or weed control at 25 ppm [11]?
The pest or weed control at 25 ppm was 76 to 100%.

What about the pest or weed control at 100 ppm [12] of the same molecule?
Its pest or weed control at 100 ppm is 76 to 100%.

With `CN(C)/C=N/c1nc(OS(=O)(=O)c2ccc(Cl)cc2)ncc1F` [Compound 359] as the molecule, how does the pest or weed control at 25 ppm [9] read?
Its pest or weed control at 25 ppm is 76 to 100%.

What about the pest or weed control at 100 ppm [10] of the same molecule?
Its pest or weed control at 100 ppm is 76 to 100%.

And the pest or weed control at 25 ppm [11]?
Its pest or weed control at 25 ppm is 76 to 100%.

And the pest or weed control at 100 ppm [12]?
Its pest or weed control at 100 ppm is 26 to 50%.

Which pest or weed control at 25 ppm [13] does the source give for `CCCCCOC(=O)Nc1nc(OCc2cccc(OC)c2)ncc1F` [Compound 988] here?
The pest or weed control at 25 ppm was 76 to 100%.

And the pest or weed control at 25 ppm [14]?
Its pest or weed control at 25 ppm is 76 to 100%.

What about the pest or weed control at 25 ppm [15] of the same molecule?
The pest or weed control at 25 ppm was 76 to 100%.

And the pest or weed control at 100 ppm [16]?
Its pest or weed control at 100 ppm is 76 to 100%.

With `CC(C)(C)c1ccc(COc2ncc(F)c(N)n2)cc1` [Compound 696] as the molecule, how does the pest or weed control at 25 ppm [5] read?
Its pest or weed control at 25 ppm is 76 to 100%.

What about the pest or weed control at 100 ppm [6] of the same molecule?
The pest or weed control at 100 ppm was 76 to 100%.

And the pest or weed control at 25 ppm [7]?
Its pest or weed control at 25 ppm is 51 to 75%.

And the pest or weed control at 100 ppm [8]?
The pest or weed control at 100 ppm was 76 to 100%.

With `Fc1ccc(COc2ncc(F)c(NCc3ccc(Cl)cc3)n2)cc1` [Compound 840] as the molecule, how does the pest or weed control at 50 ppm (24 h, one day protectant) read?
The pest or weed control at 50 ppm was 51 to 75%.

What about the pest or weed control at 200 ppm (24 h, one day protectant) of the same molecule?
Its pest or weed control at 200 ppm is 76 to 100%.

How did the pest or weed control at 25 ppm [9] turn out when `O=C(Cc1ccccc1)Nc1nc(OCc2cccs2)ncc1F` [Compound 453] was run?
The pest or weed control at 25 ppm was 76 to 100%.

What about the pest or weed control at 100 ppm [10] of the same molecule?
Its pest or weed control at 100 ppm is 76 to 100%.

What about the pest or weed control at 25 ppm [11] of the same molecule?
The pest or weed control at 25 ppm was 51 to 75%.

And the pest or weed control at 100 ppm [12]?
The pest or weed control at 100 ppm was 76 to 100%.

How did the pest or weed control at 25 ppm [9] turn out when `Nc1nc(OCc2cccnc2)ncc1F` [Compound 763] was run?
The pest or weed control at 25 ppm was 76 to 100%.

And the pest or weed control at 100 ppm [10]?
The pest or weed control at 100 ppm was 76 to 100%.

What about the pest or weed control at 25 ppm [11] of the same molecule?
Its pest or weed control at 25 ppm is 76 to 100%.

What about the pest or weed control at 100 ppm [12] of the same molecule?
The pest or weed control at 100 ppm was 76 to 100%.

What does the source list for `Cc1csc(COc2ncc(F)c(N)n2)c1` [Compound 577]?
pest or weed control at 25 ppm [5]: 76 to 100%; pest or weed control at 100 ppm [6]: 76 to 100%; pest or weed control at 25 ppm [7]: 76 to 100%; pest or weed control at 100 ppm [8]: 76 to 100%

How did the pest or weed control at 25 ppm [13] turn out when `CS(=O)(=O)Nc1nc(O)ncc1F` [Compound 1101] was run?
The pest or weed control at 25 ppm was 0 to 25%.

What about the pest or weed control at 25 ppm [14] of the same molecule?
Its pest or weed control at 25 ppm is 0 to 25%.

And the pest or weed control at 25 ppm [15]?
The pest or weed control at 25 ppm was 0 to 25%.

And the pest or weed control at 100 ppm [16]?
Its pest or weed control at 100 ppm is 0 to 25%.

How did the pest or weed control at 25 ppm [13] turn out when `C=CCOc1ncc(F)c(NNC(=O)c2ccncc2)n1` [Compound 1124] was run?
The pest or weed control at 25 ppm was 0 to 25%.

What about the pest or weed control at 25 ppm [14] of the same molecule?
Its pest or weed control at 25 ppm is 0 to 25%.

And the pest or weed control at 25 ppm [15]?
The pest or weed control at 25 ppm was 0 to 25%.

And the pest or weed control at 100 ppm [16]?
Its pest or weed control at 100 ppm is 0 to 25%.

Which results are given for `C=CCOC(=O)Nc1nc(OCc2ccccc2)ncc1F` [Compound 983]?
pest or weed control at 25 ppm [13]: 76 to 100%; pest or weed control at 25 ppm [14]: 76 to 100%; pest or weed control at 25 ppm [15]: 76 to 100%; pest or weed control at 100 ppm [16]: 76 to 100%

What does the source list for `CCCC(Oc1ncc(F)c(N)n1)c1ccc(F)cc1` (centres unmarked) [Compound 83]?
pest or weed control at 25 ppm [1]: 76 to 100%; pest or weed control at 100 ppm [2]: 76 to 100%; pest or weed control at 25 ppm [3]: 76 to 100%; pest or weed control at 100 ppm [4]: 76 to 100%

What does the source list for `Fc1ccccc1CNc1nc(OCc2ccccc2Cl)ncc1F` [Compound 893]?
pest or weed control at 50 ppm (24 h, one day protectant): 76 to 100%; pest or weed control at 200 ppm (24 h, one day protectant): 76 to 100%

Which pest or weed control at 25 ppm [1] does the source give for `CC(=S)Nc1nc(OCc2ccc(F)cc2)ncc1F` [Compound 53, N-(5-Fluoro-2-(4-fluorobenzyloxy)pyrimidin-4-yl)ethanethioamide] here?
Its pest or weed control at 25 ppm is 76 to 100%.

What about the pest or weed control at 100 ppm [2] of the same molecule?
Its pest or weed control at 100 ppm is 76 to 100%.

And the pest or weed control at 25 ppm [3]?
Its pest or weed control at 25 ppm is 76 to 100%.

What about the pest or weed control at 100 ppm [4] of the same molecule?
The pest or weed control at 100 ppm was 76 to 100%.

How did the pest or weed control at 50 ppm (24 h, one day protectant) turn out when `Nc1nc(OCc2c(Cl)cccc2Cl)ncc1F` [Compound 847] was run?
The pest or weed control at 50 ppm was 76 to 100%.

What does the source list for `O=[N+]([O-])c1ccccc1SNc1nc(OCc2cccc(F)c2)ncc1F` [Compound 117]?
pest or weed control at 25 ppm [1]: 26 to 50%; pest or weed control at 100 ppm [2]: 51 to 75%; pest or weed control at 25 ppm [3]: 26 to 50%; pest or weed control at 100 ppm [4]: 26 to 50%

With `Fc1cccc(COc2ncc(F)c(NCc3ccccc3F)n2)c1` [Compound 824] as the molecule, how does the pest or weed control at 50 ppm (24 h, one day protectant) read?
The pest or weed control at 50 ppm was 76 to 100%.

What about the pest or weed control at 200 ppm (24 h, one day protectant) of the same molecule?
Its pest or weed control at 200 ppm is 76 to 100%.
